From patent US5444063A, “Enantiomerically pure β-D-dioxolane nucleosides with selective anti-Hepatitis B virus activity” (priority 1992, dated 1995)
Several values for one entry are separate records, joined by “and”; a condition that tells them apart may be missing. Identical values can stand only once. Like-named read-outs stand apart in the source and are kept apart here.

Legend:
HBV = test: Effect of nucleosides on HBV production in 2.2.15 cells (HBV virion DNA and intracellular HBV DNA); assay type: cell-based, Hepatitis B virus; conditions: for HBV virion DNA, day 0 / HBV virion DNA, day 3 / HBV virion DNA, day 6 / HBV virion DNA, day 9: individual culture; for HBV virion DNA, day 0, mean / HBV virion DNA, day 3, mean / HBV virion DNA, day 6, mean / HBV virion DNA, day 9, mean / Intracellular HBV DNA on Day 10, Mono, mean / Intracellular HBV DNA on Day 10, RI, mean: mean of 4 cultures; for inhibition at 1 µM / inhibition: Hepatitis B virus
Procedure: The ability of β-D-dioxolane-nucleosides to inhibit HBV can be measured by various experimental techniques. The assay used herein to evaluate the ability of the disclosed compounds to inhibit the replication of HBV is described in detail in Korba and Gerin, Antiviral Res. 19:55-70 (1992). […] The other compounds disclosed herein are evaluated similarly.
The antiviral evaluations were performed on two separate passages of cells, two cultures per passage (4 cultures total). All wells, in all plates, were seeded at the same density and at the same time.
Due to the inherent variations in the levels of both intracellular and extracellular HBV DNA, only depressions greater than 3.0-fold (for HBV virion DNA) or 2.5-fold (for HBV DNA replication intermediates) from the average levels for these HBV DNA forms in untreated cells are generally considered to be statistically significant [P<0.05] (Korba and Gerin, Antiviral Res. 19: 55-70, 1992). The levels of integrated HBV DNA in each cellular DNA preparation (which remain constant on a per cell basis in these experiments) were used to calculate the levels of intracellular HBV DNA forms, thereby eliminating technical variations inherent in the blot hybridization assays.
The test compounds were used in the form of 40 mM stock solutions in DMSO (frozen on dry ice). Daily aliquots of the test samples were made and frozen at -20° C. so that each individual aliquot would be subjected to a single freeze-thaw cycle. […] The compounds were tested for toxicity at concentrations up to 300 μM.

[1] = Toxicity analysis of test compounds in 2.2.15 cells (neutral red dye uptake); assay type: cell-based; conditions: human
Procedure: Toxicity analyses were performed in order to assess whether any observed antiviral effects are due to a general effect on cell viability. The method used was based on the uptake of neutral red dye, a standard and widely used assay for cell viability in a variety of virus-host systems, including HSV (herpes simplex virus) and HIV. Details of the procedure are provided in the toxicity table legends.
The test compounds were used in the form of 40 mM stock solutions in DMSO (frozen on dry ice). Daily aliquots of the test samples were made and frozen at -20° C. so that each individual aliquot would be subjected to a single freeze-thaw cycle. The daily test aliquots were thawed, suspended into culture medium at room temperature and immediately added to the cell cultures° The compounds were tested at 0.0 and 1 μM for antiviral activity. The compounds were tested for toxicity at concentrations up to 300 μM.
Toxicity analyses were performed in 96-well flat bottomed tissue culture plates. Cells for the toxicity analyses were cultured and treated with test compounds with the same schedule as used for the antiviral evaluations. Each compound was tested at 4 concentrations, each in triplicate cultures. Uptake of neutral red dye was used to determine the relative level of toxicity. The absorbance of internalized dye at […] (A510) was used for the quantitative analysis. Values are presented as a percentage of the average A510 values (±standard deviations) in 9 separate cultures of untreated cells maintained on the same 96-well plate as the test compounds.

[2] = 0.1 μM, listed as (-)- -2,6-diNH2-purine-dioxolane
[3] = 1.0 μM ("1.0 M" printed for the 2,6-DiNH2 compound), listed as (-)- -2,6-DiNH2-purine-dioxolane
[4] = 1.0 μM ("1.0 M" printed for the 2,6-DiNH2 compound)
[5] = 0 h, 1.0 μM ("1.0 M" printed for the 2,6-DiNH2 compound), read-out: % inhibition, HBV virion DNA, day 0
[6] = 0 h, read-out: % inhibition, HBV virion DNA, day 0
[7] = 72 h, 1.0 μM ("1.0 M" printed for the 2,6-DiNH2 compound), read-out: % inhibition, HBV virion DNA, day 3
[8] = 72 h, read-out: % inhibition, HBV virion DNA, day 3
[9] = 144 h, 1.0 μM ("1.0 M" printed for the 2,6-DiNH2 compound), read-out: % inhibition, HBV virion DNA, day 6
[10] = 144 h, read-out: % inhibition, HBV virion DNA, day 6
[11] = 216 h, 1.0 μM ("1.0 M" printed for the 2,6-DiNH2 compound), read-out: % inhibition, HBV virion DNA, day 9
[12] = 216 h, read-out: % inhibition, HBV virion DNA, day 9
[13] = 240 h, 1.0 μM ("1.0 M" printed for the 2,6-DiNH2 compound), read-out: % inhibition, intracellular HBV DNA Mono, Day 10
[14] = 240 h, 1.0 μM ("1.0 M" printed for the 2,6-DiNH2 compound), read-out: % inhibition, intracellular HBV DNA RI, Day 10
[15] = 240 h, read-out: % inhibition, intracellular HBV DNA Mono, Day 10
[16] = 240 h, read-out: % inhibition, intracellular HBV DNA RI, Day 10
[17] = 0.1 μM, listed as (-)- -2,6-dioxolane-G
[18] = 1.0 μM ("1.0 M" printed for the 2,6-DiNH2 compound), listed as (-)- -2,6-dioxolane-G

| SMILES | HBV virion DNA, day 0, mean (HBV; 0.1 μM) | HBV virion DNA, day 3, mean (HBV; 0.1 μM) | HBV virion DNA, day 6, mean (HBV; 0.1 μM) | HBV virion DNA, day 9, mean (HBV; 0.1 μM) | Intracellular HBV DNA on Day 10, Mono, mean (HBV; 0.1 μM) | Intracellular HBV DNA on Day 10, RI, mean (HBV; 0.1 μM) | HBV virion DNA, day 0, mean (HBV; [4]) | HBV virion DNA, day 3, mean (HBV; [4]) | HBV virion DNA, day 6, mean (HBV; [4]) | HBV virion DNA, day 9, mean (HBV; [4]) | Intracellular HBV DNA on Day 10, Mono, mean (HBV; [4]) | Intracellular HBV DNA on Day 10, RI, mean (HBV; [4]) | inhibition at 1 µM (HBV; [5]) | inhibition (HBV; [6]) | inhibition at 1 µM (HBV; [7]) | inhibition (HBV; [8]) | inhibition at 1 µM (HBV; [9]) | inhibition (HBV; [10]) | inhibition at 1 µM (HBV; [11]) | inhibition (HBV; [12]) | other results |
| --- | --- | --- | --- | --- | --- | --- | --- | --- | --- | --- | --- | --- | --- | --- | --- | --- | --- | --- | --- | --- | --- |
| Nc1nc(N)c2ncn([C@H]3CO[C@@H](CO)O3)c2n1 [DAPD, (-)-(2R,4R)-2-amino-9-[(2-hydroxymethyl)-1,3-dioxolan-4-yl]adenine] | 62.75 pg/ml of cultured medium | 61.75 pg/ml of cultured medium | 30.75 pg/ml of cultured medium | 7.00 pg/ml of cultured medium | 2.35 pg/μM of cellular DNA | 12.00 pg/μM of cellular DNA | 67.75 pg/ml of cultured medium | 50.75 pg/ml of cultured medium | 12.00 pg/ml of cultured medium | 0.25 pg/ml of cultured medium | 1.15 pg/μM of cellular DNA | 2.25 pg/μM of cellular DNA | -7.54% | 0.4% | 21.6% | 4.63% | 84.4% | 59.9% | 99.7% | 90.6% | HBV virion DNA, day 0 (HBV; 0.1 μM): 77 pg/ml of cultured medium; HBV virion DNA, day 0 (HBV; [2]): 52 pg/ml of cultured medium and 58 pg/ml of cultured medium and 64 pg/ml of cultured medium; HBV virion DNA, day 3 (HBV; [2]): 67 pg/ml of cultured medium and 59 pg/ml of cultured medium and 62 pg/ml of cultured medium; HBV virion DNA, day 6 (HBV; [2]): 28 pg/ml of cultured medium and 34 pg/ml of cultured medium and 35 pg/ml of cultured medium and 26 pg/ml of cultured medium; HBV virion DNA, day 9 (HBV; [2]): 5 pg/ml of cultured medium and 6 pg/ml of cultured medium and 9 pg/ml of cultured medium and 8 pg/ml of cultured medium; HBV virion DNA, day 0 (HBV; [3]): 66 pg/ml of cultured medium and 70 pg/ml of cultured medium and 74 pg/ml of cultured medium and 61 pg/ml of cultured medium; HBV virion DNA, day 3 (HBV; [3]): 59 pg/ml of cultured medium and 45 pg/ml of cultured medium and 56 pg/ml of cultured medium and 43 pg/ml of cultured medium; HBV virion DNA, day 6 (HBV; [3]): 12 pg/ml of cultured medium and 10 pg/ml of cultured medium and 15 pg/ml of cultured medium and 11 pg/ml of cultured medium; HBV virion DNA, day 9 (HBV; 1.0 μM ("1.0 M" printed for the 2,6-DiNH2 compound), zero = undetectable, listed as (-)- -2,6-DiNH2-purine-dioxolane): 0 pg/ml of cultured medium and 1 pg/ml of cultured medium; inhibition at 1 µM (HBV; [13]): 54.5%; inhibition at 1 µM (HBV; [14]): 96.9%; inhibition (HBV; [15]): 6.93%; inhibition (HBV; [16]): 83.7%; viability at 10 µM [1]: 99 ± 1%; viability at 30 µM [1]: 99 ± 3%; viability at 100 µM [1]: 88 ± 1%; viability at 300 µM [1]: 49 ± 3% |
| Nc1nc2c(ncn2[C@H]2CO[C@@H](CO)O2)c(=O)[nH]1 [Dioxolane-G, (-)-(2R,4R)-9-[(2-hydroxymethyl)-1,3-dioxolan-4-yl]guanine] | 62.75 pg/ml of cultured medium | 68.25 pg/ml of cultured medium | 70.25 pg/ml of cultured medium | 13.75 pg/ml of cultured medium | 2.35 pg/μM of cellular DNA | 24.00 pg/μM of cellular DNA | 62.25 pg/ml of cultured medium | 66.75 pg/ml of cultured medium | 22.25 pg/ml of cultured medium | 2.75 pg/ml of cultured medium | 1.85 pg/μM of cellular DNA | 4.75 pg/μM of cellular DNA | 1.19% | 0.4% | -1.54% | -5.41% | 71% | 8.47% | 96.3% | 81.5% | HBV virion DNA, day 0 (HBV; [17]): 51 pg/ml of cultured medium and 59 pg/ml of cultured medium and 74 pg/ml of cultured medium and 67 pg/ml of cultured medium; HBV virion DNA, day 3 (HBV; [17]): 77 pg/ml of cultured medium and 62 pg/ml of cultured medium and 73 pg/ml of cultured medium and 61 pg/ml of cultured medium; HBV virion DNA, day 6 (HBV; [17]): 60 pg/ml of cultured medium and 70 pg/ml of cultured medium and 69 pg/ml of cultured medium and 82 pg/ml of cultured medium; HBV virion DNA, day 9 (HBV; [17]): 18 pg/ml of cultured medium and 12 pg/ml of cultured medium and 14 pg/ml of cultured medium and 11 pg/ml of cultured medium; HBV virion DNA, day 0 (HBV; [18]): 70 pg/ml of cultured medium and 50 pg/ml of cultured medium and 56 pg/ml of cultured medium and 73 pg/ml of cultured medium; HBV virion DNA, day 3 (HBV; [18]): 86 pg/ml of cultured medium and 59 pg/ml of cultured medium and 56 pg/ml of cultured medium and 62 pg/ml of cultured medium; HBV virion DNA, day 6 (HBV; [18]): 22 pg/ml of cultured medium and 24 pg/ml of cultured medium and 23 pg/ml of cultured medium and 20 pg/ml of cultured medium; HBV virion DNA, day 9 (HBV; 1.0 μM ("1.0 M" printed for the 2,6-DiNH2 compound), zero = undetectable, listed as (-)- -2,6-dioxolane-G): 2 pg/ml of cultured medium and 4 pg/ml of cultured medium and 3 pg/ml of cultured medium; inhibition at 1 µM (HBV; [13]): 26.7%; inhibition at 1 µM (HBV; [14]): 93.5%; inhibition (HBV; [15]): 6.93%; inhibition (HBV; [16]): 67.3%; viability at 10 µM [1]: 100 ± 3%; viability at 30 µM [1]: 101 ± 2%; viability at 100 µM [1]: 88 ± 3%; viability at 300 µM [1]: 56 ± 3% |
